Source: patent US20260315609A1, “MIXED VASOPRESSIN RECEPTOR AGONIST-ANTAGONIST FOR TREATING END-STAGE LIVER DISEASE AND COMPLICATIONS ASSOCIATED THEREOF” (FERRING B.V., priority 2022, published 2026)
“And” between values parts separate entries of the source, which are not always exact repeats. Identical values can stand only once. Like-named read-outs stand apart in the source and are kept apart here. Starred links: 1 amine or outer side, 2 acyl side, 3 side chain; linkers in the order of their positions; H or OH if unused. Positions of bridges follow the written chain, without caps; N, C: chain ends. Non-standard residues stand in square brackets, D forms with d. Residues, ends and D or L forms follow the SMILES beside them. Chains are numbered I, II in the order given. *: point of attachment. isoGln = NC(=O)[C@H](CCC(=O)[*:2])N[*:1]; εLys = N[C@@H](CCCCN[*:1])C(=O)[*:2]; Dab = NCC[C@H](N)C(=O)O; PhAc = O=C(Cc1ccccc1)*

Key:
[1] = Excretion of Compound 1 in urine of healthy subjects; assay type: in vivo, human; conditions: for dose excreted: human, urine, read-out: fraction of dose excreted unchanged in urine
Method: Urinalysis was performed locally by means of a dip-stick test. […] In case any result of the dipstick was abnormal and clinically significant, a new urine test was to be performed. If the abnormal result was confirmed, further examination could be initiated at the discretion of the Investigator. Clinically significant abnormal findings were reported as AEs. The metabolite pattern of Compound 1 in plasma and urine were measured.
In some instances, endpoints of the study were: vital signs (e.g., supine blood pressure, pulse, and body temperature), electrocardiogram (ECG) (e.g., intervals, rhythm, and morphology), cardiac function (e.g., cardiac output using echocardiography), peripheral blood flow/tissue perfusion (e.g., by skin color), venous blood gases (e.g., lactate), urinary output, clinical chemistry, hematology, hemostasis, and urinalysis, adverse events (AEs) (e.g., type, frequency, and intensity), pharmacokinetics (e.g., AUC, AUCt, AUCτ, % Extrap AUC, Cmax, tmax, CL, Vz, t1/2, MRT, Vss, F, Ae, and CLR), and metabolite pattern in plasma and urine.

[2] = M1 formation, subcutaneous infusion in mini-pigs; set-up: species or system mini-pig; conditions: minipig, in vivo, sc, s.c. infusion
[3] = Effect of buffer concentration on bioavailability and M1 formation after SC (bolus) injection in rats; assay type: in vivo, rat; conditions: s.c. (bolus)
[4] = Safety and tolerability in healthy rats; assay type: in vivo, rat
Method: Rat models were used as a model to assess PK/PD of Compound 1.
Four adult male Sprague Dawley rats were catheterized via the carotid artery (for blood collection). […] Blood samples were collected at nominal times of 5, 10, 20, 40, 60, 90, 120, 180, 240, and 300 min after administration using an automated blood sampling system as described above. Plasma was prepared from whole blood using K2EDTA as anticoagulant. Subsequent bioanalysis of samples included compound extraction and plasma concentration determination using standard LC/MS methods.
The study was performed using six adult male Sprague Dawley rats, aged ~11 weeks. The pressure catheter was a polyurethane tubing that extended out of the device body and was inserted into the lower abdominal aorta. A postoperative injection of analgesia (flunixin, 5 mg per animal; Finadyne®, Schering-Plough) was given once immediately after implantation, and once at an interval of 24 h. The surgical wounds were disinfected with povidone iodine (Vétédine®, Vetoquinol SA) for 4 consecutive days. After surgery, the animals recovered for ~2 weeks before first study administration (day 0).
On the days of administration, animals were examined before and immediately after administration, and at least once after dosing (after the ≥4-h analysis time point) to detect any clinical signs or reaction to administration. A full clinical examination was performed weekly.

[5] = test system: bile duct ligation (BDL) and ascites rat model; assay: Bile duct ligation (BDL) and ascites rats, SC b.i.d. 5 days; assay type: in vivo; conditions: for Animal Body Weight: 99.5 μg FB/kg SC b.i.d.
Method: Animals: Male Sprague Dawley rats weighing 300-400 grams with bile duct ligations (BDL) performed at 7 weeks of age by the vendor (Harlan, IN). BDL rats were administered 50 μg of vitamin K1 at the time of BDL surgery, prior to shipment, and then once weekly to reduce potential mortality from hemorrhagic complications.
The working solution was stored at 4° C. over the course of the study and warmed to room temperature for 30 minutes before administration.
Animals were weighed daily. […] Each metabolic cage was set up for continuous measurement of spontaneous urine output via force transducers placed […] the urine collection vials to monitor and record the time course of urine output. Data from the calibrated force transducers every time the rats void. […] Only 16 metabolic cages could be used, urine, water, and food intake data were not collected for one animal in the vehicle group. Animals were returned to their home cages for the remainder of the study and were sacrificed before the second treatment on the fifth day. Blood samples were collected from each animal via cardio puncture. Laparotomies were performed and ascites fluid collected and volume measured by pipet. Spleens were dissected from each animal, any excessive fat or connective tissue was removed and the spleens were weighted.

CC[C@H](C)[C@@H]1NC(=O)[C@H](Cc2ccccc2)NC(=O)[C@@H](N)CSSC[C@@H](C(=O)N2CCC[C@H]2C(=O)N[C@@H](CCNC(=O)[C@@H](N)CCCCNC(=O)[C@H](CCCCNC(C)=O)NC(=O)CC[C@H](NC(=O)[C@H](CCCNC(=N)N)NC(=O)[C@@H]2CCCN2C(=O)[C@H](C)NC(=O)[C@H](CC(N)=O)NC(=O)[C@H](CCC(N)=O)NC(=O)[C@H](Cc2ccccc2)NC(=O)[C@@H](Cc2ccc(OC)cc2)NC(=O)Cc2ccccc2)C(N)=O)C(=O)NCC(N)=O)NC(=O)[C@H](CC(N)=O)NC(=O)[C@H](CCC(N)=O)NC1=O [Compound 1, Glycinamide, L-cysteinyl-L-phenylalanyl-L-isoleucyl-L-glutaminyl-L-asparaginyl-L-cysteinyl-L-prolyl-N4-(phenylacetyl-O-methyl-D-tyrosyl-L-phenylalanyl-L-glutaminyl-L-asparaginyl-L-alanyl-L-prolyl-L-arginyl-L-isoglutamyl-N5-acetyl-L-lysyl-L-ε-lysyl)-L-2,4-diaminobutyryl-, cyclic (1→6)-disulfide] (I: H-CFIQNCP[Dab]G-NH2 / II: PhAc-[dY](Me)FQNAPR[isoGln]K(Ac)[εLys]; disulfide I:1-I:6; amide I:8-II:C)
dose excreted ([1]; iv): < 10% | dose excreted ([1]; sc): < 5% | amount excreted in urine, 4-8 hours ([1]; i.v. 0.1 mg): about 3 μg | amount excreted in urine, 4-8 hours ([1]; i.v. 0.3 mg): ~9 µg | amount excreted in urine, 4-8 hours ([1]; i.v. 0.45 mg): ~16 µg | amount excreted in urine, 4-8 hours ([1]; i.v. 0.6 mg): ~24 µg | amount excreted in urine, 4-8 hours ([1]; i.v. 0.9 mg): ~37 µg | amount excreted in urine, first 4 hours ([1]; s.c. 0.1 mg, 1st administration): about 2 μg | amount excreted in urine, first 4 hours ([1]; s.c. 0.1 mg, 5th administration): about 0.3 μg | amount excreted in urine, first 4 hours ([1]; s.c. 0.3 mg, 1st administration): ~3 µg | amount excreted in urine, first 4 hours ([1]; s.c. 0.3 mg, 5th administration): ~1.5 µg | metabolised [2]: < 20% | bioavailability ([3]; about 10 mM buffer): about 13% | bioavailability ([3]; about 100 mM buffer): about 37% | animals with local reaction at injection site ([4]; SC 4 and 20 mg/kg): three of the six | tolerability ([4]; SC bolus): well tolerated | bodyweight gain ([4]; SC, four administrations up to 20 mg/kg): did not influence bodyweight gain | deaths ([4]; SC, up to 20 mg/kg): no deaths occurred | tolerability ([4]; single SC, conscious rats, all tested dose levels): well tolerated at all tested dose levels | tolerability ([4]; single-dose IV bolus (cassette)): well tolerated | Animal Body Weight ([5]; day 1): 362.4 g | Animal Body Weight ([5]; day 2): 330.2 g | Animal Body Weight ([5]; day 3): 324.6 g | Animal Body Weight ([5]; day 4): 329.0 g | Animal Body Weight ([5]; day 5): 329.8 ± 2.9 g and 329.8 g | Urine Volume ([5]; 5-24 hr): 31.2 mL | Urine Volume, Δ versus vehicle ([5]; 5-24 hr): 46% | Urine creatinine content ([5]; 5-24 hr): 9.5 mg | Urine creatinine content, Δ versus vehicle ([5]; 5-24 hr): −32% | Urine potassium content ([5]; 5-24 hr): 0.8 mEq | Urine potassium content, Δ versus vehicle ([5]; 5-24 hr): −60% | Urine sodium content ([5]; 5-24 hr): 1.1 mEq | Urine sodium content, Δ versus vehicle ([5]; 5-24 hr): 85% | Urine Volume ([5]; 4 hr): 9.8 mL | Urine Volume, Δ versus vehicle ([5]; 4 hr): 367% | Urine creatinine content ([5]; 4 hr): 2.7 mg | Urine creatinine content, Δ versus vehicle ([5]; 4 hr): 8% | Urine potassium content ([5]; 4 hr): 1.1 mEq | Urine potassium content, Δ versus vehicle ([5]; 4 hr): 394% | Urine sodium content ([5]; 4 hr): 2.6 mEq | Urine sodium content, Δ versus vehicle ([5]; 4 hr): 2342% | Net Fluid Balance ([5]; 24 hours (vehicle 10.0)): -24.3 mL | Urine Volume ([5]; 24 hr): 41.0 ± 4.3 mL and 41.0 mL | decrease in mean body weight ([5]; between day 1 and 2): 32.2 g | further decrease in mean body weight ([5]; between days 2 and 3): 5.6 g | BUN ([5]; day 5): 34 mg/dL | BUN, Δ versus vehicle ([5]; day 5): 64% | Cl ([5]; day 5): 100 mEq/L | Cl, Δ versus vehicle ([5]; day 5): −3% | Creatinine (blood) ([5]; day 5): 0.3 mg/dL | Na (blood) ([5]; day 5): 139 mEq/L | Na (blood), Δ versus vehicle ([5]; day 5): −1% | PHOS ([5]; day 5): 5.1 mg/dL | PHOS, Δ versus vehicle ([5]; day 5): −21% | difference in final body weight versus vehicle ([5]; day 5): 39.8 g | Spleen Weight ([5]; day 5 (vehicle 2.7)): 2.3 g | Ascites Volume ([5]; day 5 (vehicle 19.8)): 3.8 ± 1.8 mL and 3.8 mL | hyponatremia ([5]; repeat administration over 5 days): failed to provide hyponatremia
